According to patent publication US20210023120A1, “COMPOSITIONS FOR THE DELIVERY OF tRNA AS NANOPARTICLES AND METHODS OF USE THEREWITH” (The Board of Regents of the University of Texas System, priority 2016, published 2021):

Tested on: p53
Test: Nanoparticle carrier screen in Calu6 cells (p53 Western blot)
Type: cell-based
Conditions: nmP53 (R196X), exogenous tRNAArg/OP, 48 hr exposure, FIGS. 6B, 9, 10, 12
Method: Calu6 cells were seeded at a density of 500,000 cells per well in a 6-well format and allowed to attach over night. For plasmid DNA, 1 μg was transfected using 3 μl of Lipofectamine 2000 using manufacturer recommend protocols. For tRNA^Arg/RNAiMax, 4 μg was transfected using 3 μl of RNAiMax using manufacturer recommended protocols. Particles were diluted in Opti-MEM (Invitrogen), G418 (50 μg) and PTC124 ([…]) was added directly to the media. Nanoparticles were prepared by mixing all delivery components in ethanol, followed by rapid mixing with tRNA in 10 mM citrate buffer pH 4.3, such that the final mole ratio was 25:1 carrier:siRNA, and the carrier mixture of the formulation consisted of molar ratios 50:38:10:2 carrier: cholesterol: DSPC: PEG-lipid. […] After 48 hr, cells were lysed directly in 2× Sample Buffer ((Tris-HCL 250 mM, pH 6.8, 20% Glycerol, 2.5% SDS, 0.1% Bromophenol blue). Cell lysate proteins were separated by electrophoresis on 10% (wt/vol) polyacrylamide gels using a Tris-glycine buffering system and transferred to polyyinylidene fluoride Immobilon membranes (EMD Millipore). Western blot analysis was performed using primary p53 antibody (Santa Cruz Biotechnology, Inc) actin antibody (EMD Millipore), and secondary antibody IRdye-68ORD (Li-Cor) and imaged/quantified using a Li-Cor Odyssey CLx (Li-Cor).

| SMILES | p53 expression (Western blot) |
| --- | --- |
| CN[C@@H]1[C@@H](O)[C@@H](O[C@@H]2[C@@H](O)[C@H](O[C@H]3O[C@H]([C@@H](C)O)[C@@H](O)[C@H](O)[C@H]3N)[C@@H](N)C[C@H]2N)OC[C@]1(C)O [G418] | only minimal p53 expression |
| O=C(O)c1cccc(-c2noc(-c3ccccc3F)n2)c1 [PTC124] | only minimal p53 expression |
